In patent US6432928B1, “Complexes and their compositions” (Chinoin Gyogyszer es Vegyeszeti Termekek Gyara Rt., priority 1994, dated 2002):
≈ marks a conversion by molar mass, not a printed value. Read-outs that look alike come from different tables or passages of the source.

Legend:
cell line K562 = assay: SRB-assay of cell growth, cell line K 562; type: cell-based, human; conditions: for cell growth by SRB-assay, extinction at 540 nm / cell growth, % of control: K562, 10−6M of Taxol and cyclodextrin; for cell growth, % of control: control = 100%; for toxicity to the cells, in words: K562, tested concentration of Table 3 (10−6M, 0.001 mM)
Description: (§1) As control solutions containing similar amounts of cyclodextrins and no Taxol, further the Taxol-Cremophor EL composition. Cremophor EL solution and the untreated cell cultures were examined.
(§2) The experiments were carried out and evaluated on both cell lines according to the examination methods of F. Skehan et al [New Colorimetric Assay of Anticancer Drug Screening, J. Natl. Canc. Inst. 82, 1107-1113 (1990) and A. Martin and M. Clynes (Comparison of 5 Microplate Colorimetric Assays for in Vitro Cytotoxicity Testing and Cell Proliferation Assays, Cytotechnology 11, 49-58 (1993)] in the Pathological and Experimental Cancer Research Institute No. 1 of the Semmelweis Medical University, Budapest.
(§3) The cells were exposed in a RPMI 1640 medium containing 10% of Foetal Calf Serum (FCS) medium on a microplate of 96 wells, by placing 5000 cells in 100 μl of medium.
(§4) The cell cultures were treated after 24 hours with a solution containing the test substances in 100 μl of a FCS-free RPMI medium, thus the final concentration of FCS became 5%. Every evaluation point is the averaged result of 8 parallels, the control was present in 8 parallels on each plate, thus the evaluation point was obtained by averaging 24 parallels. The eight test compositions were examined simultaneously, in one test on each cell line.
(§5) After 72 and 96 hours the cell growth was measured by SRB-assay (the determining method is SRB-painting of the total protein, the total protein is proportional to the cell growth, the extinction was read by a Microplate reader at a wave length of 540 nm).

cell line PC 3 = assay: SRB-assay of cell growth, cell line PC 3; type: cell-based, human; conditions: for cell growth by SRB-assay, extinction at 540 nm / cell growth, % of control: PC 3, 10^−6M of Taxol and cyclodextrin; for cell growth, % of control: control = 100%; for toxicity to the cells, in words: PC 3, tested concentration of Table 2 (10^−6M, 0.001 mM)
Description: as §1, §2, §3, §4, §5

[1] = cited from earlier work
physchem [2] = conditions: 22 °C, thermodynamic from solid
[3] = Appearance and Taxol content of the compositions as prepared; type: physicochemical; conditions: Taxol alone dissolved in ethanol or 1:1 ethanol and water
physchem [4] = conditions: 25 °C, water
[5] = cited from earlier work; remark: listed apart in the source
[6] = Solubility of Taxol with cyclodextrins and co-solvents, Higuchi-Connor method, HPLC; conditions: for solubility: Taxol with RAMEB
mouse = mouse experiments, a 50% triacetine emulsion; cited from earlier work

## OC[C@H]1O[C@@H]2O[C@H]3[C@H](O)[C@@H](O)[C@@H](O[C@H]4[C@H](O)[C@@H](O)[C@@H](O[C@H]5[C@H](O)[C@@H](O)[C@@H](O[C@H]6[C@H](O)[C@@H](O)[C@@H](O[C@H]7[C@H](O)[C@@H](O)[C@@H](O[C@H]8[C@H](O)[C@@H](O)[C@@H](O[C@H]9[C@H](O)[C@@H](O)[C@@H](O[C@H]1[C@H](O)[C@H]2O)O[C@@H]9CO)O[C@@H]8CO)O[C@@H]7CO)O[C@@H]6CO)O[C@@H]5CO)O[C@@H]4CO)O[C@@H]3CO [γ-CD, γ-cyclodextrin]
Cell line K562; incubation time 72 hours
  cell growth by SRB-assay, extinction at 540 nm: 0.555 ± 0.200
  cell growth, % of control: (50%)
Cell line K562; incubation time 96 hours
  cell growth by SRB-assay, extinction at 540 nm: 0.531 ± 0,072
  cell growth, % of control: (34%)
Cell line K562
  toxicity to the cells, in words: very toxic
Cell line PC 3; incubation time 72 hours
  cell growth by SRB-assay, extinction at 540 nm: 0.582 ± 0.126
  cell growth, % of control: (77%)
Cell line PC 3; incubation time 96 hours
  cell growth by SRB-assay, extinction at 540 nm: 0.937 ± 0,214
  cell growth, % of control: (71%)
Cell line PC 3
  toxicity to the cells, in words: slightly toxic

## O=C(O)c1ccccc1Nc1cccc(C(F)(F)F)c1 [flufenamic acid]
[1]; aqueous, without methanol
  “aqueous” stability constant: 1300 M⁻¹
[1]; in the presence of 25% by volume methanol
  stability constant: about 400 M^31 1

## CC(=O)O[C@H]1C(=O)[C@@]2(C)[C@H]([C@H](OC(=O)c3ccccc3)[C@]3(O)C[C@H](OC(=O)[C@H](O)[C@@H](NC(=O)c4ccccc4)c4ccccc4)C(C)=C1C3(C)C)[C@]1(OC(C)=O)CO[C@@H]1C[C@@H]2O (relative stereo) [Taxol, [2aR-[2aα,4β,4αβ,6β,9α(αR*,βS*a11α,12α,12aα,12bα]]-β-(benzoylamino)-α-hydroxy-benzene-propanoic acid 6,12-b-bis(acetyloxy)-12-(benzoyloxy)-2a,3-4,4a,5,6,9,10,11,12,12a,12b-dodecahydro-4,11-dihydroxy-4a,8,13,13-tetra-methyl-5-oxo-7,11-methano-1H-cyklodeca[3,4]-benz-[1,2-b]-oxeth-9-yl-ester]]
Physchem [2]; 2:1 ethanol:water, aqueous with cosolvent or surfactant or cyclodextrin
  solubility at 24 h: 4000 µg/mL (≈ 4.68 mM)
Physchem [2]; DIMEB in 2:1 ethanol:water, aqueous with cosolvent or surfactant or cyclodextrin
  solubility at 24 h: 4000 µg/mL (≈ 4.68 mM)
Physchem [2]; DIMEB in water, aqueous with cosolvent or surfactant or cyclodextrin
  solubility at 24 h: ~1000 µg/mL (≈ 1.17 mM)
Physchem [2]; OH-P-βCD in water, aqueous with cosolvent or surfactant or cyclodextrin
  solubility at 24 h: 100 µg/mL (≈ 0.117 mM)
Physchem [2]; RAMEB in 2:1 ethanol-water, aqueous with cosolvent or surfactant or cyclodextrin
  solubility at 24 h: 4000 µg/mL (≈ 4.68 mM)
Physchem [2]; RAMEB in ethanol-water, aqueous with cosolvent or surfactant or cyclodextrin
  solubility at 24 h: 4000 µg/mL (≈ 4.68 mM)
Physchem [2]; water
  solubility at 24 h: 5.9 µg/mL (≈ 0.00691 mM)
Physchem [2]; γ-CD in 2:1 ethanol:water, aqueous with cosolvent or surfactant or cyclodextrin
  solubility at 24 h: 4000 µg/mL (≈ 4.68 mM)
[3]
  behaviour on dilution: immediately precipitates when diluted
Physchem [4]
  solubility: 0.55 to 0.59 µg/mL (≈ 0.000644 to 0.000691 mM)
[5]; 250-350 moles of a methylated cyclodextrin derivative related to 1 mole of Taxol (Hungarian application P93 01373)
  solubility: about 1 mg/ml
[5]; mixed micelle system with bile acid salts and phospholipide
  solubility of Taxol: 800 µg/mL
[5]; with γ-cyclodextrin, molar ratio of 1:20
  solubility: 160 µg/mL
[6]; Taxol 4 mg/ml with γ-CD 1:63, 2:1 ethanol:water, remark wraps over r10-r11: white suspension
  remark (appearance): white
[6]; Taxol 4 mg/ml, no CD, 2:1 ethanol:water, remark wraps over r6-r9: clear solution. opalescening. then white precipitate
  remark (appearance): clear solution.
[6]; molar ratio Taxol:CD 1:278, water
  solubility: 859.9 µg/mL
[6]; molar ratio Taxol:CD 1:750, water
  solubility: 42.5 µg/mL
[6]; molar ratio Taxol:CD 1:1500, water
  solubility: 4.4 µg/mL
[6]; molar ratio Taxol:CD 1.300, water
  solubility: 231.7 µg/mL

## COC[C@H]1O[C@@H]2O[C@H]3[C@H](O)[C@@H](OC)[C@@H](O[C@H]4[C@H](O)[C@@H](OC)[C@@H](O[C@H]5[C@H](O)[C@@H](OC)[C@@H](O[C@H]6[C@H](O)[C@@H](OC)[C@@H](O[C@H]7[C@H](O)[C@@H](OC)[C@@H](O[C@H]8[C@H](O)[C@@H](OC)[C@@H](O[C@H]1[C@H](O)[C@H]2OC)O[C@@H]8COC)O[C@@H]7COC)O[C@@H]6COC)O[C@@H]5COC)O[C@@H]4COC)O[C@@H]3COC [DIMEB, heptakis-2,6-0-dimethyl-β-cyclodextrin]
Cell line K562; incubation time 72 hours
  cell growth by SRB-assay, extinction at 540 nm: 0.819 ± 0.178
  cell growth, % of control: (74%)
Cell line K562; incubation time 96 hours
  cell growth by SRB-assay, extinction at 540 nm: 1.729 ± 0.185
  cell growth, % of control: (110%)
Cell line K562
  toxicity to the cells, in words: not toxic
Cell line PC 3; incubation time 72 hours
  cell growth by SRB-assay, extinction at 540 nm: 0.725 ± 0.200
  cell growth, % of control: (96%)
Cell line PC 3; incubation time 96 hours
  cell growth, % of control: (102%)
Cell line PC 3
  toxicity to the cells, in words: not toxic

## CC(=O)OCC(COC(C)=O)OC(C)=O [triacetine, 1,2,3-triacetyl-glycerol]
mouse
  LD50: 1.2 mg/mL
